Reference: patent publication EP0710485A1, “use of anserine in the manufacture of a medicament for stimulating hematopoiesis” (SUNTORY LIMITED, priority 1994, dated 1996)

How the values were obtained:
bone marrow cells = assay: Spontaneous proliferation of bone marrow cells (3H-thymidine uptake) from cyclophosphamide-treated mice; type: in vivo, ICR mice
Protocol: 300 mg/kg dose of cyclophosphamide (CY) was intraveously injected into 7-week-old ICR mice. […] The number of cells per femur for each mouse was counted, and the bone marrow cells for each test group were plated on a 96-well microplate (2 X 100,000 cells/well), and at the same time 0.5µ Ci/well of ^3H-thymidine was added. The cells were cultured for 5 hours, and radioactivity (C.P.M) was measured with a liquid scintillation counter. An experiment was carried out using 3 animals per group, and the results are shown by mean value ± standard error. Spontaneous proliferation ability of bone marrow cells for each group was shown in the parentheses by percentage by taking spontaneous proliferation of bone marrow cells at 0 day (untreated) as 100%.

IL-3 = IL-3 productivity of spleen cells of cyclophosphamide-treated mice (FDCP-2 cell MTT assay); type: in vivo, ICR mice; conditions: for productivity of IL-3 by spleen cells: CY 300 mg/kg i.v. alone; for IL-3 productivity of the spleen cells: CY 300 mg/kg i.v. + L-anserine 100 mg/kg every day
Protocol: 300 mg/kg dose of cyclophosphamide (CY) was intraveously injected to 7-week old ICR mice. To L-anserine (Ans)-administration group, 100 mg/kg dose of L-anserine was administrated every day from the day on which cyclophosphamide was administrated. On the third, fifth and seventh days from the administration of cyclophosphamide, spleen cells of the mouse were taken and the cells (5 × 10^6 cells/ml) were cultured in a 10% FCS-RPMI 1640 medium supplemented with 2 µg/ml of concanavalin A for 24 hours, and the supernatant was assayed for IL-3. The IL-3 activity was measured by plating 1×10^4 cells/well of IL-3 dependent FDCP-2 cells on a 96 well microtiter plate, adding twofold stepwise-diluted supernatant to the wells, culturing the cells for 24 hours, and measuring a ratio of surviving FDCP-2 cells by MTT assay using 3-(4,5-dimethylthyazol-2yl)-2,5-diphenyl tetrazolium bromide. Using a culture supernatant of WEHI cells as IL-3 standard, a concentration of IL-3 which provides 50% growth per the maximum growth of the cultured FDCP-2 cells was defined as 1 unit, and I L-3 activity of a sample was obtained by calculating a sample dilution ratio which provides 50% of the maximum absorption in the standard curve.

leukocytes = assay: Leukocyte number recovery in mice given cyclophosphamide; type: in vivo, C57BL mice; conditions: for The number of leukocytes: Ans 100 mg/kg s.c. every day where given, mean ± standard error, 5 animals
Source text: On the seventh, eighth and ninth days from the administration of cyclophosphamide blood samples were taken from the orbital venosus plexus of the mouse, and the number of leukocytes was counted by an automatic hemacytometer.

erythrocytes [1] = assay: Prevention of anemia in mice given cyclophosphamide; type: in vivo, C57BL-mice
Protocol: 7-week old C57BL-mice were intravenously injected with cyclophosphamide (CY) in a dose of 300 mg/kg. L-anserine (Ans) was subcutaneously administered every day in a dose of 100 mg/kg from the day on which cyclophosphamide was administered. After 1, 3, 5, 7 and 9 days from the administration of cyclophosphamide (for L-anserine, after 3, 5 and 7 days), blood samples were taken from the orbital venosus plexus of the mouse, and the number of erythrocyte and the amount of hemoglobin were measured by an automatic hemacytometer. The experiment was carried out using three mice per experimental group, and the results are shown as mean ± standard error.

[2] = tested on: colony stimulating activity (CSA) in serum; assay: Colony stimulating activity (CSA) in serum of cyclophosphamide-treated mice
Protocol: 300 mg/kg dose of cyclophosphamide (CY) was intravenously injected into 7-week-old ICR mice. 100 mg/kg dose of L-anserine (Ans) was subcutaneously injected every day from the day on which cyclophosphamide was administered. On the first, third, fifth, seventh and ninth days from the administration of cyclophosphamide (on the third, fifth and seventh day for the group to which Ans was administrated), the mouse serum was taken, and colony stimulating activity (CSA) was measured. For a CSA assay in serum, 50 µl of CSA assay serum was added to a medium comprising 50 µl of bone marrow cells (1.5 × 10^6 cells/ml) aseptically recovered from the femur of a normal female ICR mouse, 200 µl of FCS, 450 µl of 0.6% agar and 300 µl of × 2 DMEM, and the mixture was stirred and cultured in 5% CO2 at 37°C for 10 days, a cell mass comprising at least 30 cells was counted as one colony, and the number of the colonies was defined as the CSA of a serum.

mouse bone marrow cells = assay: Colony Forming Unit in Spleen (CFU-s), transplant method, in X-ray irradiated mice; type: in vivo, C57BL/6 mouse; conditions: X-ray 6 Gy, 5 x 10^4 bone marrow cells transplanted, spleen colonies after eight days; L-anserine 100 mg/kg s.c. every day to the seventh day; versus X-ray control group
Protocol: Colony Forming Unit in Spleen (CFU-s) of mouse bone marrow cells in mouse radiated with X-ray was carried out using a transplant method. The X-ray radiation was carried out using an MBR-1520 type R X-ray radiation apparatus manufactured by Hitachi Medico. The mice were irradiated with X-rays such that the radiation dose rate was 1.16 Gy/min (150 kV, 20 mA, Filter: 0.5 mm Al + 0.1 mm Cu), and the radiation dose was 6 Gy. 5 × 10^4 bone marrow cells of normal C57BL/6 mouse were injected into a tail vein of a radiated recipient female C57BL/6 mouse. Eight days later, the spleen of the mouse was removed and fixed with Bouin solution, and the number of cell colonies formed on the spleen surface were counted. To the L-anserine-administration group 100 mg/kg dose of L-anserine was subcutaneously administrated every day from the day on which X-ray was radiated to the seventh day, and to the chicken extract-administration group 0.5 ml/head dose of chicken extract containing 2mg/ml of L-anserine was orally administrated every day from the day on which X-ray was radiated to the seventh day.

erythrocytes [3] = assay: Treatment of anemia in mice irradiated with X-ray; type: in vivo, C57BL/mice; conditions: 4.0 Gy X-ray; L-anserine 100 mg/kg s.c. for 10 days; 14th day from irradiation
Protocol: 7-week old C57BL/mice were systemically irradiated with 4.0 Gy of X-ray. L-anserine was subcutaneously injected continuously for 10 days from the day on which X-ray was irradiated in a dose of 100 mg/kg. On 14th day from the irradiation of X-ray, blood samples were taken from the orbital venosus plexus of mice, and the number of erythrocytes and amount of hemoglobin were measured by an automatic hemacytometer. The experiment used three mice for one experimental group, and the results are shown as mean ± standard error.

[4] = CY 300 mg/kg i.v. alone, third to seventh days
[5] = CY 300 mg/kg i.v. + L-anserine 100 mg/kg s.c. every day, third day to seventh day

O=P1(N(CCCl)CCCl)NCCCO1 (centres unmarked) [CY, cyclophosphamide]
spontaneous proliferation ability of bone marrow cells (bone marrow cells; CY 300 mg/kg i.v. alone, fifth day): once recovered to the normal level | spontaneous proliferation ability of bone marrow cells (bone marrow cells; CY 300 mg/kg i.v. alone, first to third days): remarkably inhibited | spontaneous proliferation ability of bone marrow cells (bone marrow cells; CY 300 mg/kg i.v. alone, seventh to ninth days): again decreased | productivity of IL-3 by spleen cells (IL-3; first to third days): inhibited | productivity of IL-3 by spleen cells (IL-3; on and after the fifth day, versus normal conditions): increase of IL-3 productivity by two times | The number of leukocytes (leukocytes; 7 days after CY 300 mg/kg i.v.): 32.8 ± 8.0 X 100/µl | The number of leukocytes (leukocytes; 8 days after CY 300 mg/kg i.v.): 67.4 ± 8.1 X 100/µl | The number of leukocytes (leukocytes; 9 days after CY 300 mg/kg i.v.): 66.6 ± 7.2 X 100/µl | number of leukocytes (leukocytes; CY 300 mg/kg i.v. alone, time course after administration): decreased immediately after the administration, and gradually recovered before the seventh to ninth day | amount of hemoglobin (erythrocytes [1]; [4]): decrease, resulting in anemia | number of erythrocytes (erythrocytes [1]; [4]): decrease, resulting in anemia | colony stimulating activity (CSA) in serum ([2]; CY 300 mg/kg i.v. alone, after the third day): the inhibition was compensated by stimulation of CSA | colony stimulating activity (CSA) in serum ([2]; CY 300 mg/kg i.v. alone, first day): inhibited

Cn1cncc1C[C@H](NC(=O)CCN)C(=O)O [L-anserine, β-alanyl-π-methyl-L-histidine]
spontaneous proliferation ability of bone marrow cells (bone marrow cells; CY 300 mg/kg i.v. + L-anserine 100 mg/kg s.c. every day, third and seventh days, versus CY alone control group): at least two times higher than the control group | spontaneous proliferation ability of bone marrow cells (bone marrow cells; CY 300 mg/kg i.v. + L-anserine 100 mg/kg s.c. every day, third to seventh days, versus CY alone control group): significantly higher than that of the control group | IL-3 productivity of the spleen cells (IL-3; fifth and seventh days): 1.5 times higher than the control group | IL-3 productivity of the spleen cells (IL-3; third to seventh days, versus CY alone control group): higher than the control group | CFU-s activity (mouse bone marrow cells): significantly higher | number of leukocytes (leukocytes; CY 300 mg/kg i.v. + L-anserine 100 mg/kg s.c. every day, eighth and ninth days): ~1.5 times higher than that of the control | number of leukocytes (leukocytes; CY 300 mg/kg i.v. + L-anserine 100 mg/kg s.c. every day, seventh to ninth days, versus CY alone control group): higher than that of the control group | decrease of content of hemoglobin (erythrocytes [1]; [5]): inhibited | decrease of the number of erythrocytes (erythrocytes [1]; [5]): inhibited | recovery of the concentration of hemoglobin (erythrocytes [3]): promoted | recovery of the number of erythrocytes (erythrocytes [3]): promoted | colony stimulating activity (CSA) in serum ([2]; CY 300 mg/kg i.v. + L-anserine 100 mg/kg s.c. every day, third day): 1.5 times higher than the control group | colony stimulating activity (CSA) in serum ([2]; CY 300 mg/kg i.v. + L-anserine 100 mg/kg s.c. every day, third to seventh days, versus CY alone control): higher than that of the control
